Measured values as given in publication PMC5524571 (Molecular cell, 2012).

Key:
MdfA [1] = target: T1, MdfA (Escherichia coli, UniProt P0AEY8); test: substrate-induced proton release from purified MdfA; type: binding; conditions: unbuffered solution, 2 µM MdfA, 500 µM EtBr
MdfA [2] = target: T1, MdfA; conditions: several pH values (pH 6 to 8.5)
Asp34 = Asp34 (UniProt position 34, TYIGNDMIQPG); test: fluorescence; conditions: Detergent-solubilised, folded; competition between TPP and protons

T1 sequence (P0AEY8 whole entry): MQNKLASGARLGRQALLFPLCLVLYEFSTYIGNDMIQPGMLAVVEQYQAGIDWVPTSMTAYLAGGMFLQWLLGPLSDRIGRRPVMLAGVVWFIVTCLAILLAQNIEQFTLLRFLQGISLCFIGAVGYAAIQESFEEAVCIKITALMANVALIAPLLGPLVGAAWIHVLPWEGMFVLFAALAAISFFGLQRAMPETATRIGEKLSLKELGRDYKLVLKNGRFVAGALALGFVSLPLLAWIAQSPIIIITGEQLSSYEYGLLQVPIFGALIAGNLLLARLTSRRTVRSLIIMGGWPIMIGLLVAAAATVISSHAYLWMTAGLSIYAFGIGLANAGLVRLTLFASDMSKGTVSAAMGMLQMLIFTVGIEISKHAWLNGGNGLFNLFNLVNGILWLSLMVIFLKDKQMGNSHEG

In the case of CC[n+]1c(-c2ccccc2)c2cc(N)ccc2c2ccc(N)cc21 [ethidium bromide], the “substrate-induced proton release from purified MdfA (pH electrode)” value (MdfA [1]) is reported as “adding TPP or EtBr caused rapid acidification”.
In the case of c1ccc([P+](c2ccccc2)(c2ccccc2)c2ccccc2)cc1 [TPP], the dissociation constant (MdfA [2]) is reported as “the affinity of purified, detergent-solubilized MdfA for its substrate tetraphenylphosphonium (TPP) was measured”.
“Multidrug transporter MdfA (wild type, His6-tagged) (Escherichia coli)” was tested, and the pKa (Asp34) was 6.84 ± 0.06.
